Legend:
[1] = test system: S. aureus 43300 (MRSA); assay: Antibiotic repotentiation (antibiotic MIC with/without compound); format: cell-based, Staphylococcus aureus; conditions: +50 μM compound
[2] = test system: S. aureus USA300 (MRSA); assay: as above; format: cell-based, Staphylococcus aureus; conditions: +50 μM compound, S. aureus USA300 (MRSA)
[3] = test system: S. aureus USA100 (MRSA); assay: microbe, parasite or virus in culture; format: cell-based, Staphylococcus aureus; conditions: Staphylococcus aureus, compound alone, CAMHB, 18 h
[4] = test system: S. aureus NR-49120 biofilm; assay: Biofilm inhibition, crystal violet assay; format: cell-based; conditions: Staphylococcus aureus, NR49120BIOFILM, S. aureus NR-49120 (methicillin and vancomycin resistant), 30 h
Experimental: (§1) A standard static crystal violet assay was used to quantify biofilm inhibition.^45 Cultures of S. aureus or S. epidermidis were grown overnight in TSBG (tryptic soy broth with 5% glucose) at 37° C. with shaking. These cultures were used to inoculate fresh TSBG to a calculated optical density of 0.01 at 600 nm (OD600). […] Untreated aliquots were used as a positive control and water served as a negative control. 100 μl of these suspensions were added to the wells of a 96-well polyvinylchloride microtiter plate. […] After incubation, media was discarded and the plates were washed with water to remove non-adherent cells. Adherent biofilms were stained with 110 μl of crystal violet (0.1% in water) and incubated at room temperature for thirty minutes. The crystal violet staining solution was discarded and plates were washed with water to remove excess stain. The resulting stained biofilms were solubilized with 200 μL of 95% ethanol for 10 minutes. 125 μl of the ethanol solutions were transferred to a clear polystyrene microtiter plate for evaluation. Absorbance at 540 nm was recorded using a BioTek Synergy H1 microplate reader. The absorbance of the negative control lanes was subtracted from the experimental values to account for background staining. Percent inhibition was calculated by comparison of the absorbance values of control versus treated wells under identical conditions.
(§2) Antibiotic resistance and biofilm formation share similar regulatory mechanisms. […] Biofilm inhibition was first assessed in S. aureus 43300, a methicillin-resistant strain (see Table 18). As described in Materials and Methods, a standard crystal violet assay was used to assess biofilm inhibition by the tested compounds. The IC50 is described as the compound concentration required to inhibit 50% of biofilm formation. The standard deviation is calculated from at least 3 independent experiments.
(§3) The biofilm inhibition activity of loratadine was further explored in other strains of S. aureus. Loratadine was capable of inhibiting biofilm formation in all tested strains of S. aureus, including methicillin-resistant and vancomycin-resistant strains.

[5] = test system: S. aureus NR-50109 biofilm; assay: Biofilm inhibition, crystal violet assay; format: cell-based; conditions: Staphylococcus aureus, NR50109BIOFILM, S. aureus NR-50109 (methicillin and vancomycin resistant), 30 h
Experimental: as §1, §2, §3

[6] = test system: S. aureus 29213 biofilm; assay: Biofilm inhibition, crystal violet assay; format: cell-based; conditions: Staphylococcus aureus, 30 h
Experimental: as §1, §2, §3

[7] = test system: S. aureus USA100 biofilm; assay: Biofilm inhibition, crystal violet assay; format: cell-based; conditions: Staphylococcus aureus, S. aureus USA100 (MRSA), 30 h
Experimental: as §1, §2, §3

[8] = test system: S. aureus USA300 biofilm; assay: Biofilm inhibition, crystal violet assay; format: cell-based; conditions: Staphylococcus aureus, S. aureus USA300 (MRSA), 30 h
Experimental: as §1, §2, §3

- Oxacillin MIC ([1]; S. aureus ATCC 43300 (MRSA)): 1 µg/mL
- Oxacillin MIC [2]: 0.5 µg/mL
- MIC [3]: > 200 µM
- IC50 [4]: 59.9 ± 1.29 µM
- IC50 [5]: 19.1 ± 2.87 µM
- IC50 [6]: 25.9 ± 2.36 µM
- IC50 [7]: 22.2 ± 6.51 µM
- IC50 [8]: 32.8 ± 5.9 µM
SMILES: CCOC(=O)N1CCC(=C2c3ccc(Cl)cc3CCc3cccnc32)CC1 [Loratadine, ethyl 4-(8-chloro-5,6-dihydrobenzo[1,2]cyclohepta[2,4-b]pyridin-11-ylidene)piperidine-1-carboxylate]
- Fold Reduction ([1]; oxacillin MIC, S. aureus 43300 (MRSA)): 32
- Fold Reduction ([2]; oxacillin MIC): 64

— patent US12115208B2, “Small-molecule adjuvants for antibiotics to address antibiotic resistance” (HIGH POINT UNIVERSITY, priority 2017, dated 2024)
